Experimental data taken from ChEMBL document CHEMBL1201862, “PubChem BioAssay data set” (2004).
Calls of active or inactive are those of the source. Cut-off read from the data, not from the text of the source, for most assays here: actives have a measured EC50 and inactives only a lower limit.

Assays:
Nonstructural protein 1 = Nonstructural protein 1 (Influenza A virus, UniProt Q194T2); assay type: functional, Influenza A virus (A/California/07/2009(H1N1))
Bcl-2-like protein 10 = target: T1, Bcl-2-like protein 10 (Homo sapiens, UniProt Q9HD36); assay: displacers of TR3 peptide from Bcl-B, primary screen, selectivity assay for Bfl-1 inhibitor project, biochemical, fluorescence polarization, FITC-TR3 peptide (AID 748);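 note: fluorescence polarization from a fluorescein-labelled TR3 peptide binding purified Bcl-B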
T1 sequence (Q9HD36 whole entry): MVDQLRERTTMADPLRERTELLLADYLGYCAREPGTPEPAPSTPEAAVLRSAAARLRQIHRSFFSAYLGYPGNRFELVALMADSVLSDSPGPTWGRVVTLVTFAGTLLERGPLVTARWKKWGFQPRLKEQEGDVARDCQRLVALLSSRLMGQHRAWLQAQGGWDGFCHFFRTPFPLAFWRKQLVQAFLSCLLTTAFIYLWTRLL

[1] = target: Induced myeloid leukemia cell differentiation protein Mcl-1 (Homo sapiens, UniProt Q07820); assay type: functional
Chain of Induced myeloid leukemia cell differentiation protein Mcl-1 (Q07820 whole entry): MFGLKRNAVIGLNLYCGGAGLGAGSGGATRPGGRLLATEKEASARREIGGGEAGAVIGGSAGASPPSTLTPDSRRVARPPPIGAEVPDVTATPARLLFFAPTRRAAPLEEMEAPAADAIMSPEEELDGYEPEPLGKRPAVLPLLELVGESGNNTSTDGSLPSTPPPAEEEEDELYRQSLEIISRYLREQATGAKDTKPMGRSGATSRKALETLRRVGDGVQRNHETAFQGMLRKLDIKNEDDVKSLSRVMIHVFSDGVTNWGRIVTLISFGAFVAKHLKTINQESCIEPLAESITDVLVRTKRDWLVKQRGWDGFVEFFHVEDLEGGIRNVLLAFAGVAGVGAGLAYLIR

[2] = target: Melanin-concentrating hormone receptor 1 (Homo sapiens, UniProt Q99705); assay: Late-stage fluorescence-based counterscreen for antagonists of the G-protein coupled receptor 7 (GPR7): cell-based dose response assay to identify antagonists of the melanin-concentrating hormone receptor 1 (MCHR1). [Related pubchem assays (depositor defined):AID1861, AID1880, AID1952, AID2148, AID2251, AID2257, AID485339]; assay type: functional;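 note: stimulated with 30 nM MCH peptide agonist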
Chain of Melanin-concentrating hormone receptor 1 (Q99705 whole entry): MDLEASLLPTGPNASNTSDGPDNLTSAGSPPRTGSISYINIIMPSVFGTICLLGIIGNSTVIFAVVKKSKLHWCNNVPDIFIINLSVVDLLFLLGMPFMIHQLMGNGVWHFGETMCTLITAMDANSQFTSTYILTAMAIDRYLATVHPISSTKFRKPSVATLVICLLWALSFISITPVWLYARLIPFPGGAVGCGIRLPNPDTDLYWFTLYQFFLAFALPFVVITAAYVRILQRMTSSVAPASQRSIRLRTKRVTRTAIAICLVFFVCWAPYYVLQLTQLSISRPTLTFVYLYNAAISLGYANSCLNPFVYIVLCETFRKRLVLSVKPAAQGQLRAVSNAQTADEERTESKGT

[3] = M. tuberculosis H37Rv growth inhibitors, H37Rv strain (AID 1626); assay type: functional
[4] = cytotoxicity toward NIH3T3 fibroblasts, dose response, counter-screen, cell-based, ATP luminescence, mouse fibroblasts (AID 2010); assay type: functional;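 note: cells exposed to compound for about 90 hours before reading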
[5] = target: Heat shock protein HSP 90-alpha (Homo sapiens, UniProt P07900); assay type: functional, organism-based
[6] = inhibitors of intracellular T. cruzi replication, confirmation, NIH3T3 host cells, beta-gal luminescence (AID 2044); assay type: functional, cell-based;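 note: intracellular parasites grown in NIH/3T3 mouse fibroblasts as host cells; luminescent beta-galactosidase reporter signal from transgenic T. cruzi replicating inside host cells; inhibitors lower the luminescence signal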
cells [7] = assay: cells
[8] = target: T2, DNA repair protein RAD52 homolog (Homo sapiens, UniProt P43351); assay type: functional, biochemical
T2 sequence (P43351 whole entry): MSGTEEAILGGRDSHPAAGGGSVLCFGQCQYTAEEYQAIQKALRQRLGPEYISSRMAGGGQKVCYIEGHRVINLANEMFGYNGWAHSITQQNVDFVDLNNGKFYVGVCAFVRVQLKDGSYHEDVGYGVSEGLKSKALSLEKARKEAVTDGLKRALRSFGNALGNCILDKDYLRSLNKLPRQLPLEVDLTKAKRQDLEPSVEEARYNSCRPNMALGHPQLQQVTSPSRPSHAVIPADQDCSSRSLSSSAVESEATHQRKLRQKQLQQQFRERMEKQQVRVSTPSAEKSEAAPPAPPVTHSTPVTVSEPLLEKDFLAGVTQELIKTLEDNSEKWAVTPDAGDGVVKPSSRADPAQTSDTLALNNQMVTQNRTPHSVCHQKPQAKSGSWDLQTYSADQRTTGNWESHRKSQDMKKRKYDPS

cells [9] = assay type: functional, cell-based
BJ [10] = assay: cells; assay type: functional, cell-based; details: Homo sapiens
[11] = inhibitors of firefly luciferase expression or activity, dose response, H4 neuroglioma cells, luminescence (AID 1990); assay type: functional, cell-based
[12] = cytotoxicity toward DRD oncogenic fibroblasts, dose response, cell-based, non-viral oncogenic, luminescence (AID 1934); assay type: functional; details: Homo sapiens
BJ [13] = assay: cytotoxicity toward BJ-TERT fibroblasts, dose response, cell-based, RAS-independent, luminescence (AID 1933); assay type: functional; details: Homo sapiens
[14] = luciferase reporter signal reduction – luminescence, H4-C neuroglioblastoma cells, dose response (AID 2458); assay type: functional, cell-based;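 note: H4 neuroglioblastoma cells stably carrying a luciferase reporter gene fusion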
[15] = cytotoxicity in HEK-293T cells, dose response, cytotoxicity control for BCR NF-kB inhibitor project, luminescence, B-cell screen hits (AID 489021); assay type: functional, cell-based;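 note: HEK-293T cells carrying an NF-kB luciferase reporter; cells exposed to compound for about 14 hours before viability readout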
BJ [16] = assay: cytotoxicity toward BJ-TERT-LT-ST fibroblasts, dose response, cell-based, RAS-independent, luminescence (AID 1935); assay type: functional; details: Homo sapiens;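 note: BJ fibroblasts immortalized with TERT plus LT and ST oncogenes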
[17] = inhibitors of SNCA 5'UTR-driven translation, confirmation, luminescence, H4 neuroglioblastoma cells, dose confirmation (AID 2454); assay type: functional, cell-based;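 note: H4 neuroglioblastoma cells carrying an alpha-synuclein 5'UTR luciferase reporter; potency for inhibition of the luciferase signal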
[18] = inhibitors of SNCA 5'UTR-driven reporter translation, confirmation, H4 neuroglioma cells, luminescence (AID 1988); assay type: functional, cell-based

Chain of Nonstructural protein 1 (Q194T2 whole entry): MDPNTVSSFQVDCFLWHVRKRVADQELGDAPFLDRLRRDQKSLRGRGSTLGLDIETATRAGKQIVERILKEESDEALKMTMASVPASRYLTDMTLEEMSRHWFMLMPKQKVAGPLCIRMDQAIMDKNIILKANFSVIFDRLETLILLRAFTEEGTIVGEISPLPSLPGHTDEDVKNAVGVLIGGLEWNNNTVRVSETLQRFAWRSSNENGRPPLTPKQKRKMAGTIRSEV

SMILES: CN(C)c1ccc(NC(=O)CN2C(=O)CN=C(c3ccccc3)c3cc(Cl)ccc32)cc1
- IC50 (Nonstructural protein 1): 31 µM (active)
- IC50 (Bcl-2-like protein 10): > 100 µM (inactive)
- IC50 [1]: 0.856 µM (not active)

SMILES: CCC(C)c1ccc(-n2ncc(Cl)c(Oc3ccc(OC)cc3)c2=O)cc1 (stereo not given)
- IC50 [2]: 2.2 µM (active)

SMILES: CCCCOC(=O)c1ccc(NC(=O)C(=O)NCc2ccccn2)cc1
- IC50 [3]: > 100 µM (active)

SMILES: Cc1c(Cc2ccccc2)c(NCCN(C)C)n2c(nc3ccccc32)c1C#N
- EC50 [4]: 34.1 µM (active)
- AC50 [5]: 2.37 µM (active)
- EC50 [6]: < 0.1 µM (active)
- IC50 [1]: 3.29 µM (active)
- EC50 (cells [7]): 0.015 µM (active)

SMILES: Cc1ccc2nc(N(CCCN(C)C)C(=O)CN3C(=O)c4ccccc4C3=O)sc2c1
- EC50 [4]: > 60 µM (not active)
- EC50 [6]: < 0.1 µM (active)
- AC50 [8]: 21.7 µM (active)
- EC50 (cells [7]): 0.055 µM (active)

SMILES: CC1(C)CC(=O)C(/C=N/c2ccc3c(c2)OCO3)=C(O)C1
- IC50 [3]: > 100 µM (active)

SMILES: CCOC(=O)Cc1ccc(NC(=O)c2ccc(C(C)(C)C)cc2)cc1
- EC50 (cells [9]): 0.508 µM (active)
- EC50 (BJ [10]): > 150 µM (not active)
- EC50 [11]: < 0.1 µM (active)
- EC50 [12]: 49.5 µM (active)
- EC50 (BJ [13]): 60.1 µM (active)
- EC50 [14]: 0.266 µM (active)
- IC50 [15]: 42.8 µM (inactive)
- EC50 (BJ [16]): > 150 µM (inconclusive)
- EC50 [17]: 0.483 µM (active)
- EC50 [18]: < 0.1 µM (active)
